In patent US12419824B2, “Compounds useful for the treatment and/or care of the skin, hair, nails and/or mucous membranes” (Lubrizol Advanced Materials, Inc., priority 2019, dated 2025):

Tested on: Muscle bind like protein 1 (MBNL1)
Experiment: MBNL1 quantification in human skeletal muscle cells by TR-FRET (Examples 7, 19)
Assay type: cell-based
Settings: hSkMc (Innoprot), 0.5 mg/ml, 48 hours, normalized to total protein
Protocol: MBNL1 induction by the peptides of the invention is evaluated by a Time resolved fluorescence resonance energy transfer (TR-FRET) assay. The aim of this study is to investigate the capacity of peptide candidates to increase MBNL1 in human skeletal muscle cells (hSkMc).
hSkMc (Innoprot) are seeded in 12-well plates at a density of 1.5×10^4 cells/well in Skeletal Muscle Cell Growth Medium (Promocell). After 72 hours incubation, medium is removed and replaced with Skeletal Muscle Cell Differentiation Medium (Promocell). 48 hours after beginning cell differentiation, fresh differentiation medium with 0.5 mg/ml of test items is added. Treatment is continued for 48 hours and non-treated cells are used as basal control. After 48 hours of treatment, cell medium is removed and added cell lysis buffer to wells. Immediately, plates are kept at −80° C. in order to improve protein extraction during the defrosting process. After 72 hours, cells are lysated by shaking the plates in an orbital rotor at room temperature for 45 minutes. Next, cell lysates are collected and assayed to quantify the level of MBNL1 protein and total protein concentration.
MBNL1 protein levels measurement is performed with Human MBNL1 Assay Kit (Cisbio) according to the manufacturer's protocol. Briefly, the kit is used to perform a TR-FRET for MBNL1 quantification. The protein is detected with the antibodies provided in the kit and quantified by a fluorescence measurement. The quantification is carried out by using a microplate reader (ClarioStar, BMG) set to 665 nm and 620 nm.
Total protein concentration of cell lysate is determined by using Pierce BCA Protein Assay Kit™ (Thermo Scientific) according to manufacturer's protocol. In brief, after adding Working Reagent to the samples and the standards, the samples are incubated. Afterwards, color change is measured with an absorbance microplate reader (Clariostar™, BMG) at 562 nm. The total protein amount is used to normalize the level of MBNL1 protein concentration obtained by the TR-FRET test in the samples.
Different peptides of the invention are tested as disclosed in Example 7 at 0.5 mg/mL.

| Substance | MBNL1 levels compared to the basal control |
| --- | --- |
| Ac-Asp-Val-Tyr-Lys-NH2 (Ac-DVYK-NH2) [PEP1] | increase MBNL1 levels |
| H-Ala-Leu-Lys-Pro-Asn-Thr-NH2 (H-ALKPNT-NH2) [PEP2] | increase MBNL1 levels |
